Key:
[1] = assay type: physicochemical
[2] = system: SARS-CoV-2 clinical isolate; assay type: cell-based

## OC[C@@H](O)[C@@H](O)[C@H](O)[C@H](O)CO [mannitol, D-mannitol]
[1]; pH 5.8
  cumulative levels of NO: 1400 nmol NO per mg nitrite
[1]; pH 6.2
  difference in cumulative NO with and without mannitol: differences have disappeared

## CCN(CC)CCCC(C)Nc1ccnc2cc(Cl)ccc12 (stereo not drawn) [chloroquine, Chloroquine Phosphate, reference compound]
[2]
  SARS-CoV-2 virus titre: limit of detection (LOD)

## O=C(O)CC(O)(CC(=O)O)C(=O)O [citric acid pH 5.8, citric acid]
[2]
  in vitro antiviral action against SARS-CoV-2: high in vitro antiviral action
Vero E6 cells
  cytotoxicity on the LDH assay: low cytotoxicity

## OC[C@@H](O)[C@H](O)[C@@H](O)CO [xylitol]
[1]; after 3000 s
  cumulative nitric oxide evolution: about 20000 nmol per mg nitrite
